From patent US20100234226A1, “HERBICIDE COMBINATION COMPRISING DIMETHOXYTRIAZINYL-SUBSTITUTED DIFLUOROMETHANESULFONYLANILIDES” (BAYER CROPSCIENCE AG, priority 2008, published 2010)
Where two headings read alike, the source gives them in different places.

How the values were obtained:
Format in all cases: in vivo
[1] = system: Lolium multiflorum (LOLMU); assay: Post-emergence action against weeds, greenhouse pot test, Lolium multiflorum; settings: read-out: % activity found; for inhibition at 200 g/ha: 200 g of ai/ha; for inhibition at 600 g/ha: 600 g of ai/ha
Protocol: (§1) Seeds or rhizome pieces of mono- and dicotyledonous harmful and useful plants were placed in peat pots (diameter 4 cm) filled with sandy loam and then covered with soil. The pots were kept in a greenhouse under optimum conditions. In addition, harmful plants encountered in paddy rice cultivation were cultivated in pots with a water level 2 cm above the soil surface.
(§2) About three weeks after the start of the cultivation, the test plants were treated at the 2- to 3-leaf stage. The herbicides, formulated as powder or liquid concentrates, were, either alone or in the combinations according to the invention, sprayed in various dosages on to the green parts of the plants using an application rate of 600 l of water/ha (converted). For further cultivation of the plants, the pots were then again kept under optimum conditions in a greenhouse.
(§3) The visual scoring of the herbicidal effects was carried out in intervals up to 21 days after the treatment. Scoring was carried out in percent in comparison to the untreated control plants. 0%=no herbicidal activity, 100%=complete herbicidal activity=complete kill.
(§4) The percentages from the treatments with the herbicides alone (=individual application) and with the combinations according to the invention (=mixtures) were employed to calculate interactions using the method of Colby. When the observed efficacies of the mixtures exceed the formal sum of the values of the tests with individual applications, they also exceed the expected value according to Colby, which is calculated using the formula below (cf. S. R. Colby; in Weeds 15 (1967) pp. 20 to 22):
(§5) Here: • A, B=activity of components A and B in percent at a dosage of a and b g of ai/ha (=gramm of active substance per hectare), respectively. • E=expected value in % at a dosage of a+b g of ai/ha.
(§6) The combinations according to the invention of herbicides from group (A) with herbicides from group (B) were tested on a broad spectrum of important harmful plants (weed grasses, broad-leaved weeds/Cyperaceae) and useful plants: Triticum aestivum (TRZAS), Stellaria media (STEME), Lolium multiflorum (LOLMU), Veronica persica (VERPE), Alopecurus myosuroides (ALOMY), Matricaria inodora (MATIN), Brassica napus (BRSNW), Viola tricolor (VIOTR), Avena fatua (AVEFA), Amaranthus retroflexus (AMARE), Zea mays (ZEAMX), Pharbitis purpurea (PHBPU), Setaria viridis (SETVI), Fallopia (ex Polygonum) convolvulus (POLCO), Echinochloa crus-gaffi (ECHCG), Abuthilon theophrasti (ABUTH), Cyperus esculentus (CYPES), Oryza sativa (ORYSA).
(§7) Of particular interest are the results shown in the tables (Tab.) below, where the following key is used: • (1) EPPO code (former Bayer code) for the treated plant (see above) • (2) Time of scoring: DAT (days after treatment) • (3) Component A tested (identifying number) • (4) Component B tested (identifying number) • (5) Dosage component A [g of ai/ha] • (6) Dosage component B [g of ai/ha] • (7) % activity found • (8) E value (calculated according to Colby; see above) • (9) Comments: “SYNERGY”=synergistic interaction (E value <% activity found); “SAFENING”=safener action on useful plant (E value >% activity found)

[2] = system: Fallopia (ex Polygonum) convolvulus (POLCO); assay: Post-emergence action against weeds, greenhouse pot test, Fallopia convolvulus
Protocol: as §1, §2, §3, §4, §5, §6, §7

[3] = system: Amaranthus retroflexus (AMARE); assay: Post-emergence action against weeds, greenhouse pot test, Amaranthus retroflexus; settings: read-out: % activity found
Protocol: as §1, §2, §3, §4, §5, §6, §7

[4] = system: Matricaria inodora (MATIN); assay: Post-emergence action against weeds, greenhouse pot test, Matricaria inodora; settings: for inhibition at 200 g/ha: 200 g of ai/ha; for inhibition at 600 g/ha: 600 g of ai/ha; for (7) % activity found: MATIN
Protocol: as §1, §2, §3, §4, §5

[5] = system: Zea mays (ZEAMX); assay: Post-emergence action against weeds, greenhouse pot test, Zea mays; settings: for inhibition at 200 g/ha: 200 g of ai/ha
Protocol: as §1, §2, §3, §4, §5, §6, §7

[6] = system: Viola tricolor (VIOTR); assay: Post-emergence action against weeds, greenhouse pot test, Viola tricolor; settings: for inhibition at 200 g/ha: 200 g of ai/ha
Protocol: as §1, §2, §3, §4, §5, §6, §7

[7] = system: Cyperus esculentus (CYPES); assay: Post-emergence action against weeds, greenhouse pot test, Cyperus esculentus
Protocol: as §1, §2, §3, §4, §5

[8] = system: Veronica persica (VERPE); assay: Post-emergence action against weeds, greenhouse pot test, Veronica persica; settings: read-out: % activity found; for inhibition at 4 g/ha: 4 g of ai/ha; for inhibition at 12 g/ha: 12 g of ai/ha
Protocol: as §1, §2, §3, §4, §5, §6, §7

[9] = system: Setaria viridis (SETVI); assay: Post-emergence action against weeds, greenhouse pot test, Setaria viridis; settings: 504 h, read-out: % activity found
Protocol: as §1, §2, §3, §4
(§8) Here: • A, B=activity of components A and B in percent at a dosage of a and b g of ai/ha (=gramm of active substance per hectare), respectively. • E=expected value in % at a dosage of a+b g of ai/ha. […]

[10] = system: Triticum aestivum (TRZAS); assay: Post-emergence action against weeds, greenhouse pot test, Triticum aestivum; settings: 240 h, read-out: % activity found
Protocol: as §1, §2, §3, §4, §8

[11] = Tripleurospermum inodorum, post-emergence, 240 h, 10 DAT, read-out: % activity found
[12] = Tripleurospermum inodorum, post-emergence, 504 h, 21 DAT, read-out: % activity found
[13] = Fallopia convolvulus, post-emergence, 504 h, read-out: % activity found
[14] = Zea mays, post-emergence, 240 h, read-out: % activity found

Question: Which results are given for `CCOC1Oc2ccc(OS(C)(=O)=O)cc2C1(C)C` (racemic) [B-49, (±)-2-ethoxy-2,3-dihydro-3,3-dimethyl-5-benzofuranyl methanesulfonate]?
Answer: inhibition at 200 g/ha ([1]; 240 h, 10 DAT): 0%; inhibition at 600 g/ha ([1]; 240 h, 10 DAT): 10%; inhibition at 200 g/ha ([1]; 504 h, 21 DAT): 0%; inhibition at 600 g/ha ([1]; 504 h, 21 DAT): 0%; inhibition at 200 g/ha ([2]; Fallopia convolvulus, post-emergence, 504 h, 21 DAT, 200 g of ai/ha, read-out: % activity found): 40%; inhibition at 600 g/ha ([2]; Fallopia convolvulus, post-emergence, 504 h, 21 DAT, 600 g of ai/ha, read-out: % activity found): 50%; inhibition at 200 g/ha ([3]; 504 h, 21 DAT, 200 g of ai/ha): 50%; inhibition at 200 g/ha [4, 11]: 0%; inhibition at 600 g/ha [4, 11]: 0%; inhibition at 200 g/ha [4, 12]: 20%; inhibition at 600 g/ha [4, 12]: 30%; inhibition at 200 g/ha ([5]; Zea mays, post-emergence, 240 h, 10 DAT, read-out: % activity found): 30%; inhibition at 600 g/ha ([5]; Zea mays, post-emergence, 240 h, 10 DAT, 600 g of ai/ha, read-out: % activity found): 40%; inhibition at 200 g/ha ([5]; Zea mays, post-emergence, 504 h, 21 DAT, read-out: % activity found): 0%; inhibition at 200 g/ha ([6]; Viola tricolor, post-emergence, 240 h, 10 DAT, read-out: % activity found): 0%; inhibition at 200 g/ha ([6]; Viola tricolor, post-emergence, 504 h, 21 DAT, read-out: % activity found): 0%; inhibition at 600 g/ha ([6]; Viola tricolor, post-emergence, 504 h, 21 DAT, 600 g of ai/ha, read-out: % activity found): 0%; inhibition at 600 g/ha ([7]; Cyperus esculentus, post-emergence, 504 h, 21 DAT, 600 g of ai/ha, read-out: % activity found): 0%; inhibition at 200 g/ha ([8]; 504 h, 21 DAT, 200 g of ai/ha): 20%

Question: Which results are given for `CCS(=O)(=O)Oc1ccc2c(c1)C(C)(C)CO2` [B-9, 2,3-dihydro-3,3-dimethyl-5-benzofuranyl ethanesulfonate]?
Answer: inhibition at 300 g/ha ([1]; 504 h): 0%; inhibition at 100 g/ha [2, 13]: 0%; inhibition at 300 g/ha [2, 13]: 30%; inhibition at 100 g/ha ([4]; Tripleurospermum inodorum, post-emergence, 504 h, read-out: % activity found): 50%; inhibition at 100 g/ha [9]: 40%; inhibition at 100 g/ha [5, 14]: 10%; inhibition at 300 g/ha [5, 14]: 20%; inhibition at 300 g/ha ([5]; Zea mays, post-emergence, 504 h, read-out: % activity found): 0%; inhibition at 100 g/ha ([8]; 504 h): 0%

Question: Which inhibition at 40 g/ha ([1]; 240 h) does the source give for `CNC1=C(c2cccc(C(F)(F)F)c2)C(=O)C(c2ccccc2)O1` (racemic) [B-61, (±)-5-(methylamino)-2-phenyl-4-[3-(trifluoromethyl)phenyl]-3(2H)-furanone] here?
Answer: 50%

Question: And the inhibition at 40 g/ha ([1]; 504 h)?
Answer: 40%

Question: What about the inhibition at 40 g/ha [10] of the same molecule?
Answer: 30%

Question: And the “(7) % activity found” value ([4]; 21 DAT, B-61 alone, dose (6) 40)?
Answer: 50%

Question: What about the “(7) % activity found” value ([4]; 21 DAT, B-61 alone, dose (6) 120) of the same molecule?
Answer: 50%

Question: And the “(7) % activity found” value ([4]; 21 DAT, Table 65, B-61 alone, dose (6) 40)?
Answer: 50%

Question: And the “(7) % activity found” value ([5]; ZEAMX, 21 DAT, B-61 alone, dose (6) 120)?
Answer: 50%

Question: What about the inhibition at 40 g/ha [5, 14] of the same molecule?
Answer: 40%

Question: And the inhibition at 120 g/ha [5, 14]?
Answer: 50%

Question: What about the “(7) % activity found” value ([6]; VIOTR, 21 DAT, B-61 alone, dose (6) 120) of the same molecule?
Answer: 70%

Question: And the “(7) % activity found” value ([7]; CYPES, 21 DAT, B-61 alone, dose (6) 40)?
Answer: 20%

Question: Which “% activity found” value ([2]; 21 DAT, 12 g of ai/ha) does the source give for `COc1nc(OC)nc(C(=O)c2cccc(F)c2N(C)S(=O)(=O)C(F)F)n1` [A-1] here?
Answer: 75%

Question: What about the inhibition at 4 g/ha ([3]; 240 h, 10 DAT, 4 g of ai/ha) of the same molecule?
Answer: 70%

Question: And the “(7) % activity found” value ([4]; 21 DAT, A-1 alone, dose (5) 4)?
Answer: 50%

Question: And the “(7) % activity found” value ([4]; 21 DAT, Table 65, A-1 alone, dose (5) 12)?
Answer: 60%

Question: What about the inhibition at 4 g/ha ([4]; Tripleurospermum inodorum, post-emergence, 10/21 DAT, 4 g of ai/ha, read-out: % activity found) of the same molecule?
Answer: 50%

Question: What about the inhibition at 4 g/ha ([6]; Viola tricolor, post-emergence, 240 h, 10 DAT, 4 g of ai/ha, read-out: % activity found) of the same molecule?
Answer: 20%

Question: What about the inhibition at 12 g/ha ([7]; Cyperus esculentus, post-emergence, 240 h, 10 DAT, 12 g of ai/ha, read-out: % activity found) of the same molecule?
Answer: 70%

Question: And the inhibition at 4 g/ha ([8]; 240 h, 10 DAT)?
Answer: 60%

Question: And the inhibition at 12 g/ha ([8]; 240 h, 10 DAT)?
Answer: 60%

Question: What about the inhibition at 4 g/ha ([8]; 504 h, 21 DAT) of the same molecule?
Answer: 30%

Question: What about the inhibition at 12 g/ha ([8]; 504 h, 21 DAT) of the same molecule?
Answer: 40%
